In patent publication US4440757A, “Pharmaceutical composition comprising derivative of aminobenzoic acid for regulating prostaglandin” (priority 1978, dated 1984):

Legend:
[1] = tested on: Ehrlich cancer cells; assay: PGE in Ehrlich tumour tissue and tumour proliferation (i.p.); format: in vivo, female C57BL/6 mouse; details: 100 mg/kg i.p. every other day, 14th day
Protocol: Ehrlich cancer cells were transplanted subcutaneously to groups of female C57BL/6 mouse after 9 weeks of birth at a rate of 1×10^6 and while feeding the mice, the present substance, Specimen No. 7, was intraperitoneally administered to the mice every other day from the next day of the transplantation at a rate of 100 mg/kg. On 14th day of the transplantation, the mice were sacrificed with ether to extirpate the tumor tissue. After homogenizing the tumour tissue finely cut by scissors with the addition of 7 ml of methanol per gram of the tumour tissue at a temperature of 0° C., the homogenate was filtered with filter paper to obtain a filtrate. After adding 2 times by volume of chloroform to the filtrate, the mixture was well mixed and left for 30 min at 4° C. Then, the cooled mixture was subjected to the same procedures as in Example 11 to determine the content of PGE in the tumour tissue. The content of PGE in the tumour tissue was larger in the animal transplanted with the cancer cells and administered with the present substance than in the control transplanted with the same cancer cells but not administered with the present substance. This face gives an information concerning the participation of the present substance in the metabolism of PGs.

[2] = tested on: sarcoma induced by methylcholanthrene; 6-keto PGF1α; assay: Level of 6-keto PGF1α in plasma of sarcoma-bearing rats; format: in vivo, spontaneous hypertensive rats (SHR); details: 500 mg/kg/day i.p., 6 days
Protocol: Cells of sarcoma induced by methylcholanthrene were transplanted on the back of a group of spontaneous hypertensive rats (SHR) subcutaneously at a rate of 1×10^6 cells/animal, and while feeding the rats, the present substance, Specimen No. 7, was daily administered intraperitoneally for consecutive 6 days from after 24 hours of the transplantation at a rate of 500 mg/kg/day. After 2 weeks of the ending of administration, whole blood was collected to obtain a fraction of plasma. The ether-extract of the plasma was separated by thin layer chromatography and after converting the extract into a methyloximesilyl derivative, the variation of the level 6-keto PGF1α in the extract was examined by gas-chromatography and masspectroscopy.

[3] = tested on: sarcoma 180 tumour cells, cyclic AMP; assay: Level of cyclic AMP in tumour cells of sarcoma 180; format: cell-based, mouse; details: room temperature, 5 min
Protocol: The present substance was added to 100 μl of the ascites-type tumour taken from the abdominal cavity of sarcoma 180-bearing mice to be a predetermined concentration, in this case, Specimen No. 7, and the mixture was incubated at room temperature for 5 min. After incubation, the culture was boiled, homogenized and centrifugated to obtain a supernatant liquid. The thus obtained supernatant liquid was subjected to the determination of cyclic AMP by the method of Gilman. […] The participation of the present substance in the metabolism of PGs is presumed also from this fact.

[4] = tested on: MH-134 tumor; assay: Preventing the metastasis of a transplanted tumour; format: in vivo, C3H/He mouse; details: for Number of metastatic lesion: not administered 4.5
Protocol: Cells of MH-134 tumor were transplanted to a C3 H/He mouse from its caudal vein at a rate of 2×10^6 cells/animal. The present substance, Specimen No. 7, was administered to the mouse respectively, 6, 3 and one hours before, and 1, 3 and 6 hours after the transplantation once at a rate of 1000 mg/kg forcibly p.o.
The mouse was sacrificed on 14th day of the transplantation to extirpate the lungs to examine the number of the metastatic lesion.

[5] = tested on: Ehrlich cancer cells; assay: Cyclic AMP and cyclic GMP in cancer cells of cancer-bearing mouse; format: in vivo, female ICR/JCL mice; details: 200 mg/kg/day i.p., 5 days
Protocol: Ehrlich cancer cells were transplanted into the abdominal cavity of female ICR/JCL mice after 5 weeks of birth at a rate of 1×10^6, cells/animal, and while feeding the mice, the present substance, Specimen No. 7, was intraperitoneally administered to the mice every day from the next day of transplantation for 5 days at a rate of 200 mg/kg/day. On the 6th day, the mice were sacrificed with ether to collect each 5 ml of ascites. After adding tetrasodium ethylenediamminetetraacetate into the thus collected ascites, the mixture was centrifugated for 10 min at a temperature of 4° C. and 1,500 rpm to separate the supernatant liquid and the cancer cells. The supernatant liquid was again centrifugated at 4° C. and 3,000 rpm for 15 min. The separated cancer cells were washed with Hank's solution and then subjected to repeated centrifugation for 5 times at 800 rpm for each 5 min to remove impurities such as erythrocytes, etc. After homogenizing 1×10^8 cells of the cancer in 3 ml of an aqueous 6% solution of trichloroacetic acid at a temperature of 0° C., the homogenate was centrifugated for 20 min at 3000XG to obtain a liquid extract. After adding 10% by weight of an aqueous 1 N solution of hydrochloric acid to the liquid extract, it was extracted 5 times with each two times by volume of ether to remove trichloroacetic acid. […]

SMILES: O=C(O)c1ccc(NC2OC[C@@H](O)[C@H](O)[C@H]2O)cc1 (stereo partly drawn) [Specimen No. 7, Sodium p-aminobenzoate-N--D-xyloside]
- Weight of tumour tissue ([1]; control 1.30): 0.75 g
- Content of PGE in the tumour tissue ([1]; control 1.77): 3.98 ng/g
- level of 6-keto PGF1 in the blood of cancer-bearing rat (FIG. 14) [2]: almost same as in normal rat
- level of cyclic AMP in tumour cells (FIG. 10) [3]: raising the level of cyclic AMP in the tumour cells of sarcoma 180
- Rate of positive metastasis ([4]; 1000 mg/kg p.o. 1 hour after, printed 7/10): 70%
- Rate of positive metastasis ([4]; 1000 mg/kg p.o. 1 hour before, printed 7/9): 77.8%
- Rate of positive metastasis ([4]; 1000 mg/kg p.o. 3 hours after, printed 9/10): 90%
- Rate of positive metastasis ([4]; 1000 mg/kg p.o. 3 hours before, printed 8/9): 88.9%
- Rate of positive metastasis ([4]; 1000 mg/kg p.o. 6 hours after, printed 10/10): 100%
- Rate of positive metastasis ([4]; 1000 mg/kg p.o. 6 hours before transplantation, printed 10/10): 100%
- Number of metastatic lesion ([4]; 1 hour after): 2.6
- Number of metastatic lesion ([4]; 1 hour before): 2.2
- Number of metastatic lesion ([4]; 3 hours after): 3.0
- Number of metastatic lesion ([4]; 3 hours before): 1.9
- Number of metastatic lesion ([4]; 6 hours after): 3.5
- Number of metastatic lesion ([4]; 6 hours before): 2.3
- GMP per 10^8 cancer cells ([5]; control 0.59): 0.72 pM
- Cyclic AMP per 10^8 cancer cells ([5]; control 19.5): 21.2 pM
